Biological target: T1, NBS mutant NALP1 (Homo sapiens, UniProt Q9C000, G339E/K340A)
T1 construct: to generate full-length NALP1 in frame with EGFP; expressed in transfected cells; host or cells: HeLa cells, transient transfection; S-100 extract used
T1 sequence (Q9C000 1-1473 G339E/K340A): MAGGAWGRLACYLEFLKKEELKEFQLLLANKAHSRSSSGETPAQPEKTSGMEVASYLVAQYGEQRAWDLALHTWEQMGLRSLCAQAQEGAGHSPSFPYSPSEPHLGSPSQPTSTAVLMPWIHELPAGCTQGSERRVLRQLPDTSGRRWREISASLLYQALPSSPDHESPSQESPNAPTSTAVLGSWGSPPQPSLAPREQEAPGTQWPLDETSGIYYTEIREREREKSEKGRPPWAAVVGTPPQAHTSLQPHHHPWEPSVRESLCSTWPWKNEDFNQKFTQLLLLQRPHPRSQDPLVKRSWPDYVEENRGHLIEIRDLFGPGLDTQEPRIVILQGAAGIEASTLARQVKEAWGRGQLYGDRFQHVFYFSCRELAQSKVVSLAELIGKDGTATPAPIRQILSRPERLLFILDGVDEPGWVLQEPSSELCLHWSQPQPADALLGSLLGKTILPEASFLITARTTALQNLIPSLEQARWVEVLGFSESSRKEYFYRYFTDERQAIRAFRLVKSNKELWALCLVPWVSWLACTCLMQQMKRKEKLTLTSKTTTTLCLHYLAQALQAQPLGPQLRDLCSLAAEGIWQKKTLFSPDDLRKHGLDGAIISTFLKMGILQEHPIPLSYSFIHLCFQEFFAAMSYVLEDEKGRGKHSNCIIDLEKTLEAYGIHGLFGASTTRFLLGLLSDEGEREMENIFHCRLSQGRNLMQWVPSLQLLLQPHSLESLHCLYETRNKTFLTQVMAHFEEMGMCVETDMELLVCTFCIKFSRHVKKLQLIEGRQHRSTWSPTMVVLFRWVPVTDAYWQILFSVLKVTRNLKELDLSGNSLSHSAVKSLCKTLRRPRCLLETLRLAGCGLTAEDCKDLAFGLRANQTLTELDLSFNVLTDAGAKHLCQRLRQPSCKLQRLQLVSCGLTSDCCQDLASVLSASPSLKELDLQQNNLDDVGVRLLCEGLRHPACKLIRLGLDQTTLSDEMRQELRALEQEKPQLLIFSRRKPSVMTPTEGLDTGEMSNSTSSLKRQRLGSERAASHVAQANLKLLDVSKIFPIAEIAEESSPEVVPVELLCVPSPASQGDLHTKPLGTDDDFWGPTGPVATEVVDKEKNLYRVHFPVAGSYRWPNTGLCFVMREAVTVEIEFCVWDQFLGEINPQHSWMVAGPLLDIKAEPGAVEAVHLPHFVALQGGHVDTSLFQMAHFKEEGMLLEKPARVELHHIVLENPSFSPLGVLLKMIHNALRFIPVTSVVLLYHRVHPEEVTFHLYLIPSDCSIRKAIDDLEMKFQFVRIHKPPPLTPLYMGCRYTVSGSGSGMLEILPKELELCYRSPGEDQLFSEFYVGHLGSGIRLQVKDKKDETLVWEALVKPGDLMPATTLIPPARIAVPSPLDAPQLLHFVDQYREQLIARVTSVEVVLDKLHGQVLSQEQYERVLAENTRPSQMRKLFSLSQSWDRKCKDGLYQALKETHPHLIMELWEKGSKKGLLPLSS
Assay: Fluorimetric DEVDase (caspase-3) assay in HeLa cell extracts expressing NBS mutant NALP1-EGFP
Assay type: biochemical
Conditions: 2 mM dATP, 2 mM MgCl2, 1 hour, Ac-DEVD-AMC substrate
Method: Cell extract preparation and fluorimetric assay of caspase activity. Preparation of cell extracts, dATP incubation and caspase-3 activities assays were performed as described by Liu et al. (1996). Briefly, HeLa cells were grown in DMEM, 10% FBS. Cells were plated in T175 flasks to 60% confluence. Control vector pEGFP or wild-type or NBS mutant NALP1-EGFP expression plasmids were transfected into HeLa cells using Lipofectamine Plus. Cells were collected in homogenization buffer (20 mM HEPES pH 7.5, 10 mM KCl, 1 mM sodium EDTA, […], 1 mM sodium EGTA, 0.1% CHAPS, 1 mM DTT, 0.1 mM PMSF and protease inhibitor cocktail tablets (Roche)), 24 hours after transfection. Cells were chilled on ice for 15 minutes and homogenized by douncing 30 times in a glass douncer. Samples were centrifuged at 1000×g for 10 minutes at 4° C. […] After 2 hours incubation, liberation of AMC (7-amino-4-methylcoumarin) from the substrate was monitored using excitation/emission wavelength pairs (λex/λem) of 380/460 nm using a SpectraFluor Plus instrument (Tecan). Triplicate samples were evaluated with or without specific inhibitors. […] Normalized data from multiple experiments were expressed as means±standard deviation. For each experiment, the expression of EGFP-tagged NALP1 proteins was analyzed by anti-GFP immunoblot and quantified by densitometry.

With Nc1ncnc2c1ncn2[C@H]1C[C@H](O)[C@@H](COP(=O)(O)OP(=O)(O)OP(=O)(O)O)O1 [dATP] the “DEVDase activity, extracts with NBS mutant NALP1” value was “did not respond”.

Source: patent publication US20040248775A1, “Methods for screening inhibitors of apoptosis” (Wyeth, priority 2003, published 2004)
